Assay results taken from the METLIN SMRT retention time set (Domingo-Almenara et al. 2019).

experiment: gradient 5% acetonitrile 3 min, to 50% in 2 min, to 85% in 15 min, held 3 min, 100 µL/min; details: column: Zorbax Extend-C18 2.1 x 50 mm; eluents: water / acetonitrile, 0.1% formic acid
Procedure, shortened: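 Retention times come from adduct peaks that were picked computationally and then checked by hand. The standards, pure and pooled in mixtures of ~100 molecules, were run on a Zorbax Extend-C18 column (2.1 × 50 mm, 1.8 μm) at 100 μL/min with water and acetonitrile, each with 0.1% formic acid. Detection was by quadrupole time-of-flight mass spectrometry in positive and negative ionization mode, with a dead volume of 40 μL and a dwell volume of 900 μL.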

Row | RP-LC retention time [s] | SMILES
1 | 1040 | Cc1cc(NC(=O)c2cn(Cc3cccc(F)c3)nc2OCc2cccc(F)c2)no1
2 | 676 | Cc1cc(NS(=O)(=O)c2c(C)noc2C)n(C2CCS(=O)(=O)C2)n1 (configuration not stated)
3 | 559 | CC(=O)N1CCC(n2c(C)nc(C(=O)N3CCCCC3)c2C)CC1
4 | 843 | CCCNC(=O)CCc1nc2ccccc2n(CC(=O)Nc2ccccc2C(=O)OC)c1=O
5 | 959 | Cc1sc(-c2nc(-c3cccc(F)c3)no2)cc1S(=O)(=O)N1CCN(c2ccccn2)CC1
6 | 1130 | COc1ccc(Br)c2c1-c1nc(NC(=O)c3ccccc3)sc1C2
7 | 747 | CCCNC(=O)C1CCN(S(C)(=O)=O)c2cc(Cl)ccc2O1 (configuration not stated)
8 | 639 | O=C(c1ccoc1)N1CCC2(CCCCO2)CC1
9 | 783 | CCCCS(=O)(=O)N1CC(c2nc(C)no2)C2(CCOCC2)C1 (configuration not stated)
10 | 841 | Cc1ccc(C)c(C(=O)NC(c2ccccc2)c2nnc(N3CCCC3)o2)c1 (configuration not stated)
11 | 983 | O=C(Cn1nc(C(=O)N2CCCC2)c2ccccc21)N1CCN(c2cccc(C(F)(F)F)c2)CC1
12 | 556 | Cn1nc(C2CCCNC2)n(Cc2ccccc2)c1=O (configuration not stated)
13 | 781 | CC(C)CNC(=O)C1CC(=O)N(CCc2c[nH]c3ccc(Cl)cc23)C1 (configuration not stated)
14 | 624 | CCn1nccc1C(=O)N1CC(N(C2CCOCC2)S(C)(=O)=O)C1
15 | 611 | Cc1cc(C)c(Cn2cnc3ccccc32)c(C)c1
16 | 859 | COc1ccc(N2C=C(C(=O)N3CCCCC3)S(=O)(=O)c3ccccc32)cc1
17 | 917 | O=C(Nc1cnn(-c2ncc(N3CCCC3)cn2)c1)c1cccc(C(F)(F)F)c1
18 | 644 | COCCCNC(=O)C1CCC(=O)N(c2ccc3c(c2)OCO3)C1c1ccc(OC)cc1 (configuration not stated)
19 | 718 | Cc1cccc(C)c1NC(=O)N1CCC(OC2CCN(S(C)(=O)=O)CC2)CC1
20 | 900 | Cc1cc(Cl)ccc1N1C(=O)CN(S(C)(=O)=O)CC1(C)C(=O)NC1CCCCC1 (configuration not stated)
21 | 749 | CCn1cc(-c2ccccc2)cc1C(=O)NC(C)c1ccccn1 (configuration not stated)
22 | 1100 | CC(O)Cn1cnc2c1c(=O)n(C)c(=O)n2C (configuration not stated)
23 | 664 | Cc1ccc(CNC(=O)CN2C(=O)C3CCCCN3c3ccc(C(=O)N4CCCC4)cc32)o1 (configuration not stated)

Row | RP-LC retention time [s] | SMILES
24 | 898 | COc1cccc(NC(=O)Nc2nccn(-c3ccc(F)cc3)c2=O)c1
25 | 850 | COc1ccc(-c2noc(C3CC(=O)N(c4ccc(F)cc4)C3)n2)c(OC)c1 (configuration not stated)
26 | 634 | CCC(C)NC(=O)N1CCN(c2cc(-c3cccc(OC)c3)ncn2)CC1 (configuration not stated)
27 | 822 | O=C(Cn1cnc2c(nnn2Cc2ccc(F)cc2)c1=O)N1CCCc2ccccc21
28 | 1040 | O=C1N(c2cccc(F)c2)c2ncccc2S(=O)(=O)N1Cc1ccc(F)cc1
29 | 678 | CCNC(=O)c1n[nH]c2c1CN(C(=O)c1cccc(Br)c1)CC2
30 | 961 | Cc1cc(C(=O)Nc2ccc(C)c(C)c2)n(-c2ccccc2)n1
31 | 804 | O=S(=O)(Nc1cccn2ncnc12)c1cccc(C(F)(F)F)c1
32 | 1160 | COc1cccc(-n2c(=O)c(C(=O)NCCc3cccs3)c(O)c3cccnc32)c1
33 | 814 | COc1ccc(NC(=O)C2CCN(S(=O)(=O)c3cc(-c4noc(C)n4)cs3)CC2)cc1OC
34 | 610 | CN1CCC(NC(=O)c2ccc3c(c2)N(S(=O)(=O)c2ccccc2)CC3)CC1
35 | 720 | O=c1cc(-c2ccccc2)oc2c(O)c(O)ccc12
36 | 594 | CC(C)CN(C1CCOCC1)C1CN(C(=O)Nc2ccccc2)C1
37 | 938 | COc1ccc(/C=C/c2cc3c(cc2OC)OCCO3)cc1O
38 | 828 | Cc1ccc(CCNC(=O)c2cc3n(n2)CC(C)(C(=O)NCc2ccc(F)cc2)N(C)C3=O)cc1 (configuration not stated)
39 | 693 | CCC(=O)N1CCN(C(=O)c2ccccc2)CC1
40 | 794 | COc1ccc(C2(C(=O)N3CCOc4ccc(N5CCOCC5)cc4C3)CC2)cc1
41 | 760 | CN1C(=O)c2cc(C(=O)NCc3cccc(F)c3)nn2CC1(C)C(=O)NCc1ccc(F)cc1 (configuration not stated)
42 | 755 | CC1Oc2ccc(S(=O)(=O)N3CCC(C(=O)NCc4ccc5c(c4)OCO5)CC3)cc2NC1=O (configuration not stated)
43 | 909 | COc1ccccc1CC(=O)Nc1ccc(-c2nc(Cn3cc(C)cn3)c(C)o2)cc1
44 | 826 | O=c1ccc(S(=O)(=O)N2CCCC2)cn1Cc1cccc(F)c1
45 | 980 | COc1ccc(-c2cc3nn(CC(=O)Nc4ccc(C)c(C)c4)c(=O)n3c(C)n2)cc1
46 | 884 | CN1C(=O)c2ccccc2C(C(=O)Nc2ccc(F)cc2F)C1c1cccs1 (configuration not stated)

Row | RP-LC retention time [s] | SMILES
47 | 768 | Cc1ccc(Sc2nccnc2N2CCCC(C(=O)N3CCN(c4ccccn4)CC3)C2)cc1 (configuration not stated)
48 | 631 | COc1ccc(CCNC(=O)COc2cc(=O)n3ccccc3n2)cc1
49 | 749 | Cc1nnc(NC(=O)c2cccc(C(F)(F)F)c2)s1
50 | 784 | CC1CCN(C(=O)C2CCN(c3nc4cccnc4s3)CC2)CC1
51 | 875 | O=C(C1=NN(Cc2ccccc2F)c2ccc(Cl)cc2S1(=O)=O)N1CCOCC1
52 | 868 | COc1ccc2[nH]cc(CCNC(=O)c3cn(-c4ccc(F)cc4)nn3)c2c1
53 | 895 | COC1CCC12CCN(C(=O)c1ccc(C)s1)CC2 (configuration not stated)
54 | 817 | Cn1c(=O)sc2cc(S(=O)(=O)N3CCC(C(=O)Nc4ccc5c(c4)OCO5)CC3)ccc21
55 | 895 | CCc1ccc(-c2cn3ccn(-c4cccc(F)c4)c(=O)c3n2)cc1
56 | 835 | COc1ccc(C)cc1NC(=O)N1CCCC1c1cc(C)no1 (configuration not stated)
57 | 760 | O=C(CSc1nc(-c2ccccc2)c(-c2ccccc2)o1)NCCCO
58 | 537 | O=C(Cn1cccn1)Nc1nc(-c2cccnc2)cs1
59 | 785 | O=C(c1cn(-c2cc(N3CCCCC3)ncn2)cn1)N1CCN(c2ncccn2)CC1
60 | 1070 | COc1ccc(NC(=O)c2cc3c(=O)n(CC(C)C)c4ccccc4n3n2)cc1F
61 | 698 | CCS(=O)(=O)N1CCC[C@H](n2c(=O)n(C)c3cccnc32)C1
62 | 889 | COc1ccc(N2CC(c3noc(-c4ccc(N(C)C)cc4)n3)CC2=O)cc1 (configuration not stated)
63 | 655 | O=S(=O)(c1ccc2c(c1)OCCO2)N(CCc1cccs1)Cc1cccnc1
64 | 746 | C=CCNC(=O)C(=O)Nc1ccc2c(c1)N(C(=O)C(C)C)CCC2
65 | 741 | Cc1ccc(NC(=O)C2CC(=O)N(c3ccc4oc(C)nc4c3)C2)c(F)c1 (configuration not stated)
66 | 686 | Cc1c(C(=O)C(=O)Nc2ccc(C(N)=O)cc2)c2ccccc2n1C
67 | 614 | O=C(c1ccsc1)N1CCN(C(=O)c2cc(-c3ccccn3)n[nH]2)CC1
